# Test results published in ChEMBL document CHEMBL1138072, “Critical modifications of the ISO-1 scaffold improve its potent inhibition of macrophage migration inhibitory factor (MIF) tautomerase activity” (Bioorg Med Chem Lett, 2006).
# pIC50: −log10 of the molar value.
# Biological target: T1, Macrophage migration inhibitory factor (Homo sapiens, UniProt P14174)
# T1 sequence (P14174 whole entry): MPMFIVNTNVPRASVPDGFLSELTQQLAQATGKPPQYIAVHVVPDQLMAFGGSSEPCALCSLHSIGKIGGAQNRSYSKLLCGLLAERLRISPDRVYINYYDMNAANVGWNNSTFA
# Test: Inhibition of MIF tautomerase activity
row,pIC50,SMILES
1,4.92,CCOC(=O)CC1CC(c2ccc(O)cc2)=NO1 (stereo unspecified)
2,5.40,CCCOC(=O)CC1CC(c2ccc(O)cc2)=NO1 (stereo unspecified)
3,5.22,CC(C)OC(=O)CC1CC(c2ccc(O)cc2)=NO1 (stereo unspecified)
4,5.60,O=C(CC1CC(c2ccc(O)cc2)=NO1)OC1CCCCC1 (stereo unspecified)
5,4.59,COc1ccc(NC(=O)CC2CC(c3ccc(O)cc3)=NO2)cc1 (stereo unspecified)
6,4.62,O=C(CC1CC(c2ccc(O)cc2)=NO1)NC1CCCCC1 (stereo unspecified)
7,5.07,CC(C)(C)OC(=O)NCCCCNC(=O)CC1CC(c2ccc(O)cc2)=NO1 (stereo unspecified)
8,5.82,CC(C)(C)COC(=O)CC1CC(c2ccc(O)cc2)=NO1 (stereo unspecified)
9,5.52,CCCCOC(=O)CC1CC(c2ccc(O)cc2)=NO1 (stereo unspecified)
10,5.07,COc1ccc(OC(=O)CC2CC(c3ccc(O)cc3)=NO2)cc1 (stereo unspecified)
11,5.00,CC(C)(C)c1ccc(OC(=O)CC2CC(c3ccc(O)cc3)=NO2)cc1 (stereo unspecified)
12,5.19,COC(=O)CC1CC(c2ccc(O)c(F)c2)=NO1 (stereo unspecified)
13,5.00,O=C(CC1CC(c2ccc(O)cc2)=NO1)Oc1ccccc1 (stereo unspecified)
14,5.30,O=C(CC1CC(c2ccc(O)cc2)=NO1)OCC1CCCCC1 (stereo unspecified)
15,< 4.00,NCCCCNC(=O)CC1CC(c2ccc(O)cc2)=NO1 (stereo unspecified)
16,4.70,Cc1cc(C)c(OC(=O)CC2CC(c3ccc(O)cc3)=NO2)c(C)c1 (stereo unspecified)
